Our source for the IC50 values is BindingDB's records for doi:10.1016/s0960-894x(00)00323-1 (The University of Newcastle, 2000).

In the experiment the target is Protein phosphatase 1 catalytic subunit (PP1). The experiment in a line: Inhibitory activity against recombinant Protein phosphatase 1.

The term IC50 denotes the midpoint of a concentration-inhibition curve.

For `COC1OC(=O)[C@H]2[C@@H]1[C@@H]1CC[C@H]2O1` (stereo partly drawn) [(1R,2S,6R,7S)-5-Methoxy-4,10-dioxa-tricyclo[5.2.1.0*2,6*]decan-3-one], the IC50 was greater than 1000 µM.

On to `CCOC(=O)C1C(C(=O)O)[C@@H]2CC[C@H]1O2` (stereo partly drawn) [(1R,4S)-7-Oxa-bicyclo[2.2.1]heptane-2,3-dicarboxylic acid monoethyl ester], for which the IC50 is 2.96 µM.
